Where two headings read alike, the source gives them in different places.
Experiments:
Assay in all cases: microbe, parasite or virus in culture
Format in all cases: cell-based
SARS-CoV-2 replicon = settings: HEK293T cells; for inhibition at 10 µM / IC50: Severe acute respiratory syndrome coronavirus 2, HEK-293T, 60 h
SARS-CoV replicon = settings: Severe acute respiratory syndrome coronavirus, HEK-293T, 60 h
SARS-CoV-2 (B.1) = tested on: SARS-CoV-2 (B.1)
[1] = Severe acute respiratory syndrome coronavirus 2, Vero C1008, 48 h

Row | SMILES | inhibition at 10 µM (SARS-CoV-2 replicon) | IC50 (SARS-CoV-2 replicon) | other results
1 | N#C[C@@]1(c2ccc3c(N)ncnn23)O[C@H](COC(=O)CC(F)(F)F)[C@@H](O)[C@H]1O [ATV016, ((2R,3S,4R,5R)-5-(4-aminopyrrolo[2,1-f][1,2,4]triazin-7-yl)-5-cyano-3,4-dihydroxytetrahydrofuran-2-yl)methyl3,3,3-trifluoropropanoate] | 97.2% | 830 nM | –
2 | CC(C)C(=O)Nc1ncnn2c([C@]3(C#N)O[C@H](COC(=O)C(C)C)[C@@H](OC(=O)C(C)C)[C@H]3OC(=O)C(C)C)ccc12 [ATV001, (2R,3R,4R,5R)-2-cyano-2-(4-isobutyramidopyrrolo[2,1-f][1,2,4]triazin-7-PGP-yl)-5-((isobutyryloxy)methyl)tetrahydrofuran-3,4-diyl bis(2-methylpropanoate)] | – | > 50000 nM | antiviral activity relative to GS-441524 (SARS-CoV-2 replicon; in words): significantly lower than that of GS-441524; inhibition at 10 µM (SARS-CoV replicon): 66.8%
3 | CCC(=O)OC[C@H]1O[C@@](C#N)(c2ccc3c(N)ncnn23)[C@H](O)[C@@H]1O [ATV008, ((2R,3S,4R,5R)-5-(4-aminopyrrolo[2,1-f][1,2,4]triazin-7-yl)-5-cyano-3,4-dihydroxytetrahydrofuran-2-yl)methyl propionate] | 98.2% | – | –
4 | CC(C)CC(=O)OC[C@H]1O[C@@](C#N)(c2ccc3c(N)ncnn23)[C@H](O)[C@@H]1O [ATV017, ((2R,3S,4R,5R)-5-(4-aminopyrrolo[2,1-f][1,2,4]triazin-7-yl)-5-cyano-3,4-dihydroxytetrahydrofuran-2-yl)methyl 3-methylbutanoate] | 97.2% | 430 nM | IC50 (SARS-CoV-2 (B.1); [1]): 2190 nM
5 | CC(C)C(=O)OC[C@H]1O[C@@](C#N)(c2ccc3c(N)ncnn23)[C@H](OC(=O)C(C)C)[C@@H]1OC(=O)C(C)C [ATV004, (2R,3R,4R,5R)-2-(4-aminopyrrolo[2,1-f][1,2,4]triazin-7-yl)-2-cyano-5-((isobutyryloxy)methyl)tetrahydrofuran-3,4-diyl bis(2-methylpropanoate)] | 97.5% | 680 nM | antiviral activity relative to GS-441524 (SARS-CoV-2 replicon; in words): improved; inhibition at 5 µM (SARS-CoV replicon): 91.8%
6 | CC(C)[C@H](N)C(=O)OC[C@H]1O[C@@](C#N)(c2ccc3c(N)ncnn23)[C@H](O)[C@@H]1O [ATV020, ((2R,3S,4R,5R)-5-(4-aminopyrrolo[2,1-f][1,2,4]triazin-7-yl)-5-cyano-3,4-dihydroxytetrahydrofuran-2-yl)methyl L-valinate] | 99.2% | 2350 nM | IC50 (SARS-CoV replicon): 1300 nM; inhibition at 10 µM (SARS-CoV replicon): 99.2%
7 | CC(=O)OC[C@H]1O[C@@](C#N)(c2ccc3c(N)ncnn23)[C@H](OC(C)=O)[C@@H]1OC(C)=O [ATV003, (2R,3R,4R,5R)-5-(acetoxymethyl)-2-(4-aminopyrrolo[2,1-f][1,2,4]triazin-7-yl)-2-cyanotetrahydrofuran-3,4-diyl diacetate] | 97.6% | 830 nM | IC50 (SARS-CoV replicon): 910 nM; inhibition at 10 µM (SARS-CoV replicon): 98.8%
8 | CC(=O)Nc1ncnn2c([C@]3(C#N)O[C@H](COC(C)=O)[C@@H](OC(C)=O)[C@H]3OC(C)=O)ccc12 [ATV002, (2R,3R,4R,5R)-2-(4-acetamidopyrrolo[2,1-f][1,2,4]triazin-7-yl)-5-(acetoxymethyl)-2-cyanotetrahydrofuran-3,4-diyl diacetate] | – | > 50000 nM | antiviral activity relative to GS-441524 (SARS-CoV-2 replicon; in words): significantly lower than that of GS-441524; inhibition at 10 µM (SARS-CoV replicon): 61%
9 | N#C[C@@]1(c2ccc3c(N)ncnn23)O[C@H](COC(=O)[C@H](N)Cc2ccccc2)[C@@H](O)[C@H]1O [ATV022, ((2R,3S,4R,5R)-5-(4-aminopyrrolo[2,1-f][1,2,4]triazin-7-yl)-5-cyano-3,4-dihydroxytetrahydrofuran-2-yl)methyl D-phenylalaninate] | 0% | – | –
10 | CC1(C)O[C@H]2[C@@H](O1)[C@](C#N)(c1ccc3c(N)ncnn13)O[C@@H]2CO [Intermediate 5 of RDV, reference compound] | – | > 50000 nM | inhibition at 10 µM (SARS-CoV replicon): 75.9%
11 | CCC(C)[C@@H](N)C(=O)OC[C@H]1O[C@@](C#N)(c2ccc3c(N)ncnn23)[C@H](O)[C@@H]1O (stereo partly drawn) [ATV024, ((2R,3S,4R,5R)-5-(4-aminopyrrolo[2,1-f][1,2,4]triazin-7-yl)-5-cyano-3,4-dihydroxytetrahydrofuran-2-yl)methyl (2R)-2-amino-3-methylpentanoate] | 99.1% | 860 nM | –
12 | CC(C)(C)C(=O)OC[C@H]1O[C@@](C#N)(c2ccc3c(N)ncnn23)[C@H](O)[C@@H]1O [ATV018, ((2R,3S,4R,5R)-5-(4-aminopyrrolo[2,1-f][1,2,4]triazin-7-yl)-5-cyano-3,4-dihydroxytetrahydrofuran-2-yl)methyl pivalate] | 97.5% | 420 nM | IC50 (SARS-CoV-2 (B.1); [1]): 938 nM
13 | CC(C)[C@@H](N)C(=O)OC[C@H]1O[C@@](C#N)(c2ccc3c(N)ncnn23)[C@H](O)[C@@H]1O [ATV019, ((2R,3S,4R,5R)-5-(4-aminopyrrolo[2,1-f][1,2,4]triazin-7-yl)-5-cyano-3,4-dihydroxytetrahydrofuran-2-yl)methyl D-valinate] | 97.2% | 970 nM | IC50 (SARS-CoV replicon): 790 nM; inhibition at 10 µM (SARS-CoV replicon): 98.6%
14 | N#C[C@@]1(c2ccc3c(N)ncnn23)O[C@H](COC(=O)C2CCCCC2)[C@@H](O)[C@H]1O [ATV014, ((2R,3S,4R,5R)-5-(4-aminopyrrolo[2,1-f][1,2,4]triazin-7-yl)-5-cyano-3,4-dihydroxytetrahydrofuran-2-yl)methyl cyclohexanecarboxylate] | 98.2% | 260 nM | antiviral activity relative to GS-441524 (SARS-CoV-2 replicon; in words): lower IC50 values and higher antiviral activity; inhibition of SARS-CoV-2 replicon replication (SARS-CoV-2 replicon; in words): significant inhibitory effects; IC50 (SARS-CoV-2 (B.1)): 331 nM
15 | CCCC(=O)OC[C@H]1O[C@@](C#N)(c2ccc3c(N)ncnn23)[C@H](O)[C@@H]1O [ATV009, ((2R,3S,4R,5R)-5-(4-aminopyrrolo[2,1-f][1,2,4]triazin-7-yl)-5-cyano-3,4-dihydroxytetrahydrofuran-2-yl)methyl butyrate] | 98.8% | 220 nM | antiviral activity relative to GS-441524 (SARS-CoV-2 replicon; in words): improved; IC50 (SARS-CoV-2 (B.1); [1]): 1330 nM
16 | CC(C)C(=O)OC[C@H]1O[C@@](C#N)(c2cc(F)c3c(N)ncnn23)[C@H](O)[C@@H]1O [ATV025, ((2R,3S,4R,5R)-5-(4-amino-5-fluoropyrrolo[2,1-f][1,2,4]triazin-7-yl)-5-cyano-3,4-dihydroxytetrahydrofuran-2-yl)methyl isobutyrate] | 97.8% | 890 nM | –
17 | CCCCCOC(=O)Nc1ncnn2c([C@]3(C#N)O[C@H](CO)[C@@H](O)[C@H]3O)ccc12 [ATV005, Pentyl (7-((2R,3R,4S,5R)-2-cyano-3,4-dihydroxy-5-(hydroxymethyl)tetrahydrofuran-2-yl)pyrrolo[2,1-f][1,2,4]triazin-4-yl)carbamate] | – | > 50000 nM | inhibition at 10 µM (SARS-CoV replicon): 73.3%
18 | CCC(CC)C(=O)OC[C@H]1O[C@@](C#N)(c2ccc3c(N)ncnn23)[C@H](O)[C@@H]1O [ATV011, ((2R,3S,4R,5R)-5-(4-aminopyrrolo[2,1-f][1,2,4]triazin-7-yl)-5-cyano-3,4-dihydroxytetrahydrofuran-2-yl)methyl 2-ethylbutanoate] | 98.9% | 320 nM | antiviral activity relative to GS-441524 (SARS-CoV-2 replicon; in words): improved; IC50 (SARS-CoV-2 (B.1); [1]): 2120 nM
19 | N#C[C@@]1(c2ccc3c(N)ncnn23)O[C@H](COC(=O)[C@@H](N)Cc2ccccc2)[C@@H](O)[C@H]1O [ATV021, ((2R,3S,4R,5R)-5-(4-aminopyrrolo[2,1-f][1,2,4]triazin-7-yl)-5-cyano-3,4-dihydroxytetrahydrofuran-2-yl)methyl L-phenylalaninate] | 0% | – | –
20 | N#C[C@@]1(c2ccc3c(N)ncnn23)O[C@H](COC(=O)c2ccccc2)[C@@H](O)[C@H]1O [ATV013, ((2R,3S,4R,5R)-5-(4-aminopyrrolo[2,1-f][1,2,4]triazin-7-yl)-5-cyano-3,4-dihydroxytetrahydrofuran-2-yl)methyl benzoate] | 97.7% | 500 nM | IC50 (SARS-CoV-2 (B.1); [1]): 2260 nM
21 | CCCCCCCCC(=O)OC[C@H]1O[C@@](C#N)(c2ccc3c(N)ncnn23)[C@H](O)[C@@H]1O [ATV010, ((2R,3S,4R,5R)-5-(4-aminopyrrolo[2,1-f][1,2,4]triazin-7-yl)-5-cyano-3,4-dihydroxytetrahydrofuran-2-yl)methyl nonanoate] | 99% | 320 nM | antiviral activity relative to GS-441524 (SARS-CoV-2 replicon; in words): improved; IC50 (SARS-CoV-2 (B.1); [1]): 696 nM
22 | N#C[C@@]1(c2ccc3c(N)ncnn23)O[C@H](COC(=O)C2CC2)[C@@H](O)[C@H]1O [ATV012, ((2R,3S,4R,5R)-5-(4-aminopyrrolo[2,1-f][1,2,4]triazin-7-yl)-5-cyano-3,4-dihydroxytetrahydrofuran-2-yl)methyl cyclopropanecarboxylate] | 97.1% | – | –
23 | CC(=O)OC[C@H]1O[C@@](C#N)(c2ccc3c(N)ncnn23)[C@H](O)[C@@H]1O [ATV007, ((2R,3S,4R,5R)-5-(4-aminopyrrolo[2,1-f][1,2,4]triazin-7-yl)-5-cyano-3,4-dihydroxytetrahydrofuran-2-yl)methyl acetate] | 91.6% | – | –
24 | CCC(C)[C@H](N)C(=O)OC[C@H]1O[C@@](C#N)(c2ccc3c(N)ncnn23)[C@H](O)[C@@H]1O (stereo partly drawn) [ATV023, ((2R,3S,4R,5R)-5-(4-aminopyrrolo[2,1-f][1,2,4]triazin-7-yl)-5-cyano-3,4-dihydroxytetrahydrofuran-2-yl)methyl (2S)-2-amino-3-methylpentanoate] | 98.7% | 950 nM | –
25 | N#C[C@@]1(c2ccc3c(N)ncnn23)O[C@H](COC(=O)C2CCCC2)[C@@H](O)[C@H]1O [ATV015, ((2R,3S,4R,5R)-5-(4-aminopyrrolo[2,1-f][1,2,4]triazin-7-yl)-5-cyano-3,4-dihydroxytetrahydrofuran-2-yl)methyl cyclopentanecarboxylate] | 97.9% | 710 nM | –

Source: patent US20240317754A1 (priority 2020, published 2024)
